Results reported in patent publication US20230135552A1, “Compounds Useful In Inhibiting Ketohexokinase And Methods Of Making And Using The Same” (Inorbit Therapeutics AB, priority 2020, published 2023).

Experiments:
[1] = molecular target: T1, KHK (Rattus norvegicus, UniProt Q02974); assay: Oral Fructose Tolerance Test (OFTT) in male Sprague Dawley rats; type: in vivo; settings: 100 mg/kg oral; fructose bolus 2 g/kg 1 hour after compound; blood at 0.5, 1, 2 and 3 hours post challenge; FIG. 1
T1 construct: from tissue; host or cells: whole animal, male Sprague Dawley rats (in vivo)
T1 sequence (Q02974 1-298): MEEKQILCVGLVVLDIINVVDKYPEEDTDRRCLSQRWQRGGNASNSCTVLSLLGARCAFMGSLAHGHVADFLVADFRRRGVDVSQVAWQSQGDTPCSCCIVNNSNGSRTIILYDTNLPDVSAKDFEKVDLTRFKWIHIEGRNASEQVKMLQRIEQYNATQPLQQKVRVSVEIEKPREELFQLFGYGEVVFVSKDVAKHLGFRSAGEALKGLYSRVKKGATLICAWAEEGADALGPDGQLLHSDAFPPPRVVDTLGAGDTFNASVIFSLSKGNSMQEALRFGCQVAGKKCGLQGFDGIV
Method: FIG. 1: Graph showing the change in fructose levels from baseline in the control and Example 2 and 6 treated animals in the OFTT study.
The animals were fasted overnight, basal blood samples collected and a 100 mg/kg dose was orally administered of compounds example 2 or example 6. A fructose bolus (2 g/kg) was then given 1 hour after test compound administration and blood samples collected at 0.5, 1, 2 and 3 hours post fructose challenge. All the blood samples were centrifuged immediately and the separated plasma samples were stored at appropriate temperature for the fructose estimation. Plasma fructose concentration was measured by commercially available EnzyChrome fructose assay kit.

[2] = molecular target: T2, Human Ketohexokinase (KHK-A) (Homo sapiens, UniProt P50053); assay: Transcreener Kinase ADP2 FP assay, inhibition of human KHK-A; type: biochemical; settings: recombinant human KHK-A 17.5 nM, 0.3 mM ATP, 7 mM fructose, 30 min pre-incubation, 60 min at 30° C.
T2 construct: Recombinant Human Ketohexokinase, Met1Val298, with C terminal 6His tag; 6His (C); purchased R&D Systems 8177-HK
T2 sequence (P50053 1-298 isoform P50053-2): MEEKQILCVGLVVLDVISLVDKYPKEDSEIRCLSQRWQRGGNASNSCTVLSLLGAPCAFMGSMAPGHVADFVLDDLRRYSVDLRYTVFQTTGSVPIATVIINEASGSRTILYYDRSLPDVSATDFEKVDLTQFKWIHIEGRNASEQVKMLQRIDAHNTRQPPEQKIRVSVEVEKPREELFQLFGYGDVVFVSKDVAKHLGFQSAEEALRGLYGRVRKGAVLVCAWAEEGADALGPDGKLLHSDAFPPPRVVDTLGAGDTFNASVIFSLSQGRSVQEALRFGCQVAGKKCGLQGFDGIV
Method: The following materials and methods were used, • Enzyme description and source: Recombinant Human Ketohexokinase, Met1Val298, with C terminal 6His tag (R&D Systems, 8177-HK). • Reagents: 200 μM ATP and 100 mM D-(−)-Fructose (Sigma F0127) as substrates. • Enzyme reaction buffer: 25 mM HEPES, 300 mM KCl, 10 mM MgCl2, 10 mM CaCl2, pH 7.0. • Control compound: KHK Inhibitor (Millipore-Sigma 420640) See Maryanoff, B. E., et al. 2011. ACS Med. Chem. Lett. 2, 538. • Assay: Transcreener Kinase ADP2 FP assay as described: https://www.bellbrooklabs.com/products/transcreener-hts-assays/kinase-assays/ • Assay parameters: 12-point dose response (n=2), 3-fold serial dilution, starting at 100 μM
KHK-A was added to the tested compounds (from 10 mM stock solution in 25 mM Tris pH 7.4), to a total volume 5 μl, and pre-incubated for 30 minutes at rt to ensure E*I complex formation. The reaction was then initiated by addition of an equal volume (5 μl) containing ATP and Fructose to give a resulting mix of 17.5 nM KHK-A, 0.3 mM ATP, 7 mM Fructose, 25 mM Tris (pH 7.4), 10 mM MgCl2, 10 mM CaCl2 and 50 mM KCl. Following 60 min at 30° C., reactions were quenched with 10 μl of stop/detect mix (40 mM HEPES (pH 7.5), 80 mM EDTA, 0,04% Brij-35, 8 nM ADP tracer and optimal concentration of ADP2 antibody), The plates were read on a PHERAstar PLUS after 1-hour room temperature equilibration. […]

Row | IC50 [2] [nM] | Compound | change in fructose levels from baseline (plasma fructose) versus the control group [1]
1 | 78 | Cc1c(N2C[C@@H]3[C@H](C2)[C@H]3CS(=O)O)nc(N2CC[C@@H]2C)nc1C(F)(F)F [Example 6, sodium((1R,5S,6S)-3-(5-methyl-2-((S)-2-methylazetidin-1-yl)-6-(trifluoromethyl)pyrimidin-4-yl)-3-azabicyclo[3.1.0]hexan-6-yl)methanesulfinate] | increase of fructose plasma levels
2 | 740 | C[C@H]1CCN1c1nc(N2C[C@@H]3[C@H](C2)[C@H]3CS(=O)O)cc(C(F)(F)F)n1 [Example 2, sodium((1R,5S,6S)-3-(2-((S)-2-methylazetidin-1-yl)-6-(trifluoromethyl)pyrimidin-4-yl)-3-azabicyclo[3.1.0]hexan-6-yl)methanesulfinate] | increase of fructose plasma levels
